Common to all, as to assay: Z'-LYTE kinase panel
What all share (type): biochemical

The target in one assay is T1, PDK1 Direct (Homo sapiens, UniProt O15530).
T1 construct: purchased ThermoFisher (SelectScreen, Z'-LYTE)
T1 sequence (O15530 1-556): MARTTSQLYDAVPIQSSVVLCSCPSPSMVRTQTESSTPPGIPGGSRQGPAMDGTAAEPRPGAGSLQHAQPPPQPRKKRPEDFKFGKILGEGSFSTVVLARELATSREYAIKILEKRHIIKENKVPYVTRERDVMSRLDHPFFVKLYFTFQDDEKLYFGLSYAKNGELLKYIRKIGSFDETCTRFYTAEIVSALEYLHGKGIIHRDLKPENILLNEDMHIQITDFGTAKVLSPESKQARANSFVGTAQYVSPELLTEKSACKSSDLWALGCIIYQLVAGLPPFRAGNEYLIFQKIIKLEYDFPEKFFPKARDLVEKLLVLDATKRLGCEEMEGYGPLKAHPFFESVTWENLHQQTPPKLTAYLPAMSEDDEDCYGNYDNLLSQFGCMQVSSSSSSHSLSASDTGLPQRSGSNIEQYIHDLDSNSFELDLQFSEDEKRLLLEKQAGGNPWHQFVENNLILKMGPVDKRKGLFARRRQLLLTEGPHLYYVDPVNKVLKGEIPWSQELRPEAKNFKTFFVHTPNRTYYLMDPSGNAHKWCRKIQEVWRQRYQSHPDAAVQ
The method in brief: (§1)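 Standard Z′-LYTE protocol applied. Compound fixed at 10 µM. Output: % inhibition. Panel size 225 kinases.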

The target in another assay is T2, CAMK4 (CaMKIV) (Homo sapiens, UniProt Q16566).
T2 construct: purchased ThermoFisher (SelectScreen, Z'-LYTE)
The method in brief: as §1

The target of a further assay is T3, PTK2 (FAK) (Homo sapiens, UniProt Q05397).
T3 construct: purchased ThermoFisher (SelectScreen, Z'-LYTE)
A digest of the protocol:
as §1

The target in the next assay is T4, LYN A (Homo sapiens, UniProt P07948).
T4 construct: purchased ThermoFisher (SelectScreen, Z'-LYTE)
A digest of the protocol:
as §1

A further assay deals with T5, NEK6 (Homo sapiens, UniProt Q9HC98).
T5 construct: purchased ThermoFisher (SelectScreen, Z'-LYTE)
A digest of the protocol:
as §1

The target of a further assay is T6, AURKB (Aurora B) (Homo sapiens, UniProt Q96GD4).
T6 construct: purchased ThermoFisher (SelectScreen, Z'-LYTE)
The method in brief: as §1

For a further assay, the target named is T7, CSF1R (FMS) (Homo sapiens, UniProt P07333).
T7 construct: purchased ThermoFisher (SelectScreen, Z'-LYTE)
The settings on record: 10 µM compound, ATP Km app. A digest of the protocol:
as §1

The target in a further assay is T8, AKT3 (PKB gamma) (Homo sapiens, UniProt Q9Y243).
T8 construct: purchased ThermoFisher (SelectScreen, Z'-LYTE)
A digest of the protocol: as §1

The target of another assay is T9, CSNK1A1 (CK1 alpha 1) (Homo sapiens, UniProt P48729).
T9 construct: purchased ThermoFisher (SelectScreen, Z'-LYTE)
A digest of the protocol:
as §1

Another assay addresses T10, IRAK4 (Homo sapiens, UniProt Q9NWZ3).
T10 construct: purchased ThermoFisher (SelectScreen, Z'-LYTE)
T10 sequence (Q9NWZ3 1-460): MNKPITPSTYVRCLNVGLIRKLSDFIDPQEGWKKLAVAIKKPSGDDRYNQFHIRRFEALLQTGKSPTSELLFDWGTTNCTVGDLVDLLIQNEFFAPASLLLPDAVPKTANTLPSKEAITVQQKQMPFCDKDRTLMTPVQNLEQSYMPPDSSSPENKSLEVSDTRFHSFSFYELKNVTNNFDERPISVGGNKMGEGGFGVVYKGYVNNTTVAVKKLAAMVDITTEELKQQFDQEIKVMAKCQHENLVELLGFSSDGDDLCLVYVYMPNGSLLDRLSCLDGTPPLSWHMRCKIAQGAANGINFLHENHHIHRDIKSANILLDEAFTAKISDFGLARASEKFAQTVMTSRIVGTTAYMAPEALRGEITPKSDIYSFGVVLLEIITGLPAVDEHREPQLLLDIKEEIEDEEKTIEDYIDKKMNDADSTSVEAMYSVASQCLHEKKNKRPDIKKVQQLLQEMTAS
The method in brief:
as §1

Another assay concerns the target T11, ACVR1B (ALK4) (Homo sapiens, UniProt P36896).
T11 construct: purchased ThermoFisher (SelectScreen, Z'-LYTE)
T11 sequence (P36896 24-505): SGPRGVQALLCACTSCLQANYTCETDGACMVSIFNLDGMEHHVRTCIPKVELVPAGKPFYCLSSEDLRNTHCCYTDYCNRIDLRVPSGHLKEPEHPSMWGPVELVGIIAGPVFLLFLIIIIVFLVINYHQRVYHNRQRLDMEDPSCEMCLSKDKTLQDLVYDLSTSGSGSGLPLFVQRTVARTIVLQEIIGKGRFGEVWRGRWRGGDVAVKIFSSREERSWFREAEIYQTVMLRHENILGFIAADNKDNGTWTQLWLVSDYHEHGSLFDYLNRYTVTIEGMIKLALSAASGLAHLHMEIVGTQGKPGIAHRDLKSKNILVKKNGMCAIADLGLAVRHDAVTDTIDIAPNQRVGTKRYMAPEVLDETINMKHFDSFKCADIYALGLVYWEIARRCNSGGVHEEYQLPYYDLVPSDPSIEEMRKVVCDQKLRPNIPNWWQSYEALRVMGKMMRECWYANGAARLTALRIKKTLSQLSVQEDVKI
The method in brief: as §1

Another assay has as its target T12, RPS6KA4 (MSK2) (Homo sapiens, UniProt O75676).
T12 construct: purchased ThermoFisher (SelectScreen, Z'-LYTE)
A digest of the protocol: as §1

In the next assay the target is T13, PRKCD (PKC delta) (Homo sapiens, UniProt Q05655).
T13 construct: purchased ThermoFisher (SelectScreen, Z'-LYTE)
A digest of the protocol: as §1

A further assay addresses T14, STK22B (TSSK2) (Homo sapiens, UniProt Q96PF2).
T14 construct: purchased ThermoFisher (SelectScreen, Z'-LYTE)
T14 sequence (Q96PF2 1-358): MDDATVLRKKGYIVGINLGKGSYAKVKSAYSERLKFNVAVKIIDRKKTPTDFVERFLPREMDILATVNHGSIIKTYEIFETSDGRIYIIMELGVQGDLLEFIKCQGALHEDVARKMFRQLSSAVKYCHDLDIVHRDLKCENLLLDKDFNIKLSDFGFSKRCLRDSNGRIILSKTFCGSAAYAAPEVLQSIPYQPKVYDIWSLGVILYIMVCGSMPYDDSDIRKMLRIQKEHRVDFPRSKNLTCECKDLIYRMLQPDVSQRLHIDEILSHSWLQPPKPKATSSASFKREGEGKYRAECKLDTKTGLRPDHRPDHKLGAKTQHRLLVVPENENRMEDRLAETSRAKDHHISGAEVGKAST
A digest of the protocol: as §1

Bounds are passed on as bounds.

T7 sequence (P07333 20-972): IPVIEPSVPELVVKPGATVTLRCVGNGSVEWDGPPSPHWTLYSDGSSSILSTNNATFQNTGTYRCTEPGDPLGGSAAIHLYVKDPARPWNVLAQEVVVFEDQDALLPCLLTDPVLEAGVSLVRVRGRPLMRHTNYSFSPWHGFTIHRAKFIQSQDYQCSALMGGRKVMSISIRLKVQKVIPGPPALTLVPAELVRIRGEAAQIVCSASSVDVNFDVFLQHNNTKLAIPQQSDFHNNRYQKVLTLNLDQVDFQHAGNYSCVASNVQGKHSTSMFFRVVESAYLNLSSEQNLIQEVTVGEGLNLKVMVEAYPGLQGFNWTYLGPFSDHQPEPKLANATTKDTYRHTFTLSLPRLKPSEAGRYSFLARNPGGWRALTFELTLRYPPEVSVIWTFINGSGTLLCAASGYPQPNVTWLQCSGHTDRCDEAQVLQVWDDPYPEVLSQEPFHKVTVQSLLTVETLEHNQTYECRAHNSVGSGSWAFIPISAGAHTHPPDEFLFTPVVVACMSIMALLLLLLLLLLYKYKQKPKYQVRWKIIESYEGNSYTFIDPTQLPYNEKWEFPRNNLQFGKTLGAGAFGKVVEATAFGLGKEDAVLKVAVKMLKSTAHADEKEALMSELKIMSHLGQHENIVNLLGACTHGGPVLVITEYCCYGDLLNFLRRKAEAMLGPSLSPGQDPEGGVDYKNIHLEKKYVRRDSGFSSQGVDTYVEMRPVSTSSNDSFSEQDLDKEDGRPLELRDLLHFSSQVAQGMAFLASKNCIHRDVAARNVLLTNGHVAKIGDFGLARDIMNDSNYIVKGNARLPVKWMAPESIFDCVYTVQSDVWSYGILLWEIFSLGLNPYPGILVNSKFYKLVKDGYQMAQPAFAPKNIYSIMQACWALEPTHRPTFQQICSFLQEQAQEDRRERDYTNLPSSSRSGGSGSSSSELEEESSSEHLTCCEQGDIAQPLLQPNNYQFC
T3 sequence (Q05397 whole entry): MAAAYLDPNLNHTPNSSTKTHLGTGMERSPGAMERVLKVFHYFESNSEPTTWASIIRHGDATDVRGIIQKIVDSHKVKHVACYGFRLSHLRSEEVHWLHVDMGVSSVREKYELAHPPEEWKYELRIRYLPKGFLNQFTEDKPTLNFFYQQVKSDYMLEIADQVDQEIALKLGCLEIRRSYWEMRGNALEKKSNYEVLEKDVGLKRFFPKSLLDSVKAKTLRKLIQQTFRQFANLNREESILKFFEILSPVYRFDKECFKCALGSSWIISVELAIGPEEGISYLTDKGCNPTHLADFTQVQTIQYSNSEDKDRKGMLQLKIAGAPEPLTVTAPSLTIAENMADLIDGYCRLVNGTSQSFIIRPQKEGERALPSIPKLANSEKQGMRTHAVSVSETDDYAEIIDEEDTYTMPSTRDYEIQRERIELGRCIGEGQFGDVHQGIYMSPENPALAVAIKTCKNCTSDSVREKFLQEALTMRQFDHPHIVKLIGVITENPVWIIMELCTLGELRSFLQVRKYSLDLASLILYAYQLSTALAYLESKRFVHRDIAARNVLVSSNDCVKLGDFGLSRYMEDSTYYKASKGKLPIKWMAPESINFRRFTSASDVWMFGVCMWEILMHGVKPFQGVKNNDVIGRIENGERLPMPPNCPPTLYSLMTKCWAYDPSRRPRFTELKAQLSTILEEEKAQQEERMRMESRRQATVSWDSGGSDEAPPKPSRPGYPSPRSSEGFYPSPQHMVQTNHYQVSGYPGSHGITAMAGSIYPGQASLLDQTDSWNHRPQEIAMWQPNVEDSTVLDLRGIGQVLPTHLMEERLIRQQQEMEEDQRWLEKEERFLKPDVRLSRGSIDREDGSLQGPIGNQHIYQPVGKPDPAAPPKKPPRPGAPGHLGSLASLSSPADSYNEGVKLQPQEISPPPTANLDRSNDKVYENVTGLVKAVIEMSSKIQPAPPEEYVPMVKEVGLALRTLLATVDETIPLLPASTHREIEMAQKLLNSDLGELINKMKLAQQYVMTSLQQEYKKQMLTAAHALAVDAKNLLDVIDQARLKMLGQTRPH
T5 sequence (Q9HC98 whole entry): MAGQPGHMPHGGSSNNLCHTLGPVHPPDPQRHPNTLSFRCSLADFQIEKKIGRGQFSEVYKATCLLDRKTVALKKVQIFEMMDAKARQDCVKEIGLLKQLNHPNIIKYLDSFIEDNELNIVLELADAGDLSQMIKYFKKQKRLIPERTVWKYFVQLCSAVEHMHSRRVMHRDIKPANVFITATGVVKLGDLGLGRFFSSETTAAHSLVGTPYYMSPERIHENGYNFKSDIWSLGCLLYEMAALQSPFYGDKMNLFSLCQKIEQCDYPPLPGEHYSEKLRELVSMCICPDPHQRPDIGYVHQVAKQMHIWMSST
T8 sequence (Q9Y243 whole entry): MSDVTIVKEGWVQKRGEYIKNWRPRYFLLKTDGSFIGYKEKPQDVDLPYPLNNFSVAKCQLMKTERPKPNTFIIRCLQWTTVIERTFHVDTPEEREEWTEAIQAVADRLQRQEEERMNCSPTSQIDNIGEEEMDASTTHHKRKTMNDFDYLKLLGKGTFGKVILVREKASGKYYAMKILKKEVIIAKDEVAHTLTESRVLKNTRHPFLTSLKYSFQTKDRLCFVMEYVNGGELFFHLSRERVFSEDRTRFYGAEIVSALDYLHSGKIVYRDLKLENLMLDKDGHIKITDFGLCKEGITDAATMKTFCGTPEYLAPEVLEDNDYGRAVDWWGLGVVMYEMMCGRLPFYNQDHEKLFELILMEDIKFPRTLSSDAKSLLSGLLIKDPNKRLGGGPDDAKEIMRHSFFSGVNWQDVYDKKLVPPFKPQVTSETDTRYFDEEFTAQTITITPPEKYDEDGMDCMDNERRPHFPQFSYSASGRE
T6 sequence (Q96GD4 whole entry): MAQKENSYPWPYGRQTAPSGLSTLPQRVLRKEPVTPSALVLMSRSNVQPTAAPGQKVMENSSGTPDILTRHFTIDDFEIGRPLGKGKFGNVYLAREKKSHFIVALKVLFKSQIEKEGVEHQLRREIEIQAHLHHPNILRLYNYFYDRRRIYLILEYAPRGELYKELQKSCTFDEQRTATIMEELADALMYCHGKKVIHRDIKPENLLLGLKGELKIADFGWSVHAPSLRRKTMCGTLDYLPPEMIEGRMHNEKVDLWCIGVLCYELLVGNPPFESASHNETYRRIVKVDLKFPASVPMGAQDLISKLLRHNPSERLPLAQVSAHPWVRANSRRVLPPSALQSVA
T12 sequence (O75676 whole entry): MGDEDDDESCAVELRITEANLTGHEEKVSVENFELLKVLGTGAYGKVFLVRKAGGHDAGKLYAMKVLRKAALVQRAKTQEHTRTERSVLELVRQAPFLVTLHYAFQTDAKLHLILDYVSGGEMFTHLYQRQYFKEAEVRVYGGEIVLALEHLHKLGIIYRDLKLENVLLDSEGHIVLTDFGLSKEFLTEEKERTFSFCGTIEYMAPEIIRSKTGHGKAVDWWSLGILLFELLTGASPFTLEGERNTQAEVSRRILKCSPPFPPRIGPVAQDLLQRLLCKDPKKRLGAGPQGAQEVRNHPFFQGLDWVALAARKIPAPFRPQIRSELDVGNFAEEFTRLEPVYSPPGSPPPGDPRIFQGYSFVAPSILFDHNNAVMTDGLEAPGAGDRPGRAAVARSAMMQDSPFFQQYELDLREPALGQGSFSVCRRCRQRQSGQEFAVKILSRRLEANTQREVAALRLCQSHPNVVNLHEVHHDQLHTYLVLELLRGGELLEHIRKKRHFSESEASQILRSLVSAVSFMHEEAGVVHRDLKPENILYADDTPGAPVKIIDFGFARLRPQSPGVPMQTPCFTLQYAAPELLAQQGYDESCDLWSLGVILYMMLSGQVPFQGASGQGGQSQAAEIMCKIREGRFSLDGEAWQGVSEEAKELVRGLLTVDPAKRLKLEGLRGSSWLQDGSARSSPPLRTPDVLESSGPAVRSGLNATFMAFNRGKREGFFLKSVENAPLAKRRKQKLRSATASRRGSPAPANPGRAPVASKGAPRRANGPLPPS
T9 sequence (P48729 whole entry): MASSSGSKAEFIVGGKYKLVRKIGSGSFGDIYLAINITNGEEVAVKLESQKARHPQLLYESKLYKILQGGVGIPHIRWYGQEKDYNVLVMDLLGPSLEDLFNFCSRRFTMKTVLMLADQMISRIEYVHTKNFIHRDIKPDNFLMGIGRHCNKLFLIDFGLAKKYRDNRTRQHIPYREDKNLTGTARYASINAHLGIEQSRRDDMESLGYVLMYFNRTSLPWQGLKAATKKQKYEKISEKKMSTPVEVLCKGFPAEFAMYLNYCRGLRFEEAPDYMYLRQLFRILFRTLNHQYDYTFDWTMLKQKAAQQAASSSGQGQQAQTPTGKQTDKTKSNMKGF
T13 sequence (Q05655 whole entry): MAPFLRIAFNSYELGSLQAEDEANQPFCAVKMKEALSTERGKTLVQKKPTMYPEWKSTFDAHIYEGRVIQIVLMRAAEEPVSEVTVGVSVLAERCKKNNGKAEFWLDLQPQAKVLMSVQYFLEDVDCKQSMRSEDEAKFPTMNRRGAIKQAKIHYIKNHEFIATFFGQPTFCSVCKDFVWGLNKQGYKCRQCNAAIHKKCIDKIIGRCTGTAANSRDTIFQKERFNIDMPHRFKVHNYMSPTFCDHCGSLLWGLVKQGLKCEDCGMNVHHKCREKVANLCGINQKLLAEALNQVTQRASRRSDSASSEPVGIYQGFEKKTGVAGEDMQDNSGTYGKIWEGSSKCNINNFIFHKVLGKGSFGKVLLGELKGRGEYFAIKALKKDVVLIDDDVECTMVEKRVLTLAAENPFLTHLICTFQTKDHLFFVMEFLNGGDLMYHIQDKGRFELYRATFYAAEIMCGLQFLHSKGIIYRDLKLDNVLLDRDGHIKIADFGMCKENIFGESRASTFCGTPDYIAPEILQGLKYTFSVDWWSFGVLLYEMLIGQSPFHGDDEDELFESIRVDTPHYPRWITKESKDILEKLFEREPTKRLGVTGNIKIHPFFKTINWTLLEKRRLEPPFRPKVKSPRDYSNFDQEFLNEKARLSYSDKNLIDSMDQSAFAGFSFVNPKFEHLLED

As to “XMD8-92 [Compound 2, reference compound]”, the “PDK1 Direct % Inhibition” value on PDK1 Direct (10 µM compound, ATP Km app) is -15%. Besides, the “CAMK4 (CaMKIV) % Inhibition” value on CAMK4 (CaMKIV) (10 µM compound, ATP Km app) turned out to be 3%. Moreover, on PTK2 (FAK) (10 µM compound, ATP Km app), the “PTK2 (FAK) % Inhibition” value was 47%. At LYN A (10 µM compound, ATP Km app), the “LYN A % Inhibition” value is recorded as 66%. Further, the “NEK6 % Inhibition” value at NEK6 (10 µM compound, ATP Km app) is recorded as 68%. Also, the “AURKB (Aurora B) % Inhibition” value at AURKB (Aurora B) (10 µM compound, ATP Km app) is on record as 39%. Further, the “CSF1R (FMS) % Inhibition” value at CSF1R (FMS) was 29%. For the same molecule, the “AKT3 (PKB gamma) % Inhibition” value at AKT3 (PKB gamma) (10 µM compound, ATP Km app) was 72%. The “CSNK1A1 (CK1 alpha 1) % Inhibition” value at CSNK1A1 (CK1 alpha 1) (10 µM compound, ATP Km app) amounted to 7%. Also, the “IRAK4 % Inhibition” value at IRAK4 (10 µM compound, ATP Km app) is given as -9%. Further, the “ACVR1B (ALK4) % Inhibition” value at ACVR1B (ALK4) (10 µM compound, ATP Km app) was -2.75%. Besides, the “RPS6KA4 (MSK2) % Inhibition” value at RPS6KA4 (MSK2) (10 µM compound, ATP Km app) is on record as 12%. The “PRKCD (PKC delta) % Inhibition” value on PRKCD (PKC delta) (10 µM compound, ATP Km app) was -3.55%. Further, at STK22B (TSSK2) (10 µM compound, ATP Km app), the “STK22B (TSSK2) % Inhibition” value is -0.837%.
The term inhibition denotes the drop in the measured response relative to a control, in per cent. In the case of `Cc1cc(Nc2nc(N)nn2C(=O)NC(C)C)ccc1Cl` [Compound 5], the inhibition at 10 µM is -1.67% on PDK1 Direct; -10% at CAMK4 (CaMKIV); 10% on PTK2 (FAK); 25% on LYN A; 3% against NEK6; 68% against AURKB (Aurora B). The inhibition at 10 µM at CSF1R (FMS) was above 80%; at AKT3 (PKB gamma), 2%; on CSNK1A1 (CK1 alpha 1), 4%; against IRAK4 it was -2.32%; against ACVR1B (ALK4), -8%; against RPS6KA4 (MSK2), 1.89%. The inhibition at 10 µM against PRKCD (PKC delta) is 1.15%; against STK22B (TSSK2) it was -10%. Besides, the “CSF1R (FMS) % Inhibition” value at CSF1R (FMS) (listed as SN1109056190, 10 µM) is reported as 81%.
On to `Cc1ncc(-c2nc(Nc3ccc(C(=O)NCCN4CCCCC4)cc3)ncc2F)n1C(C)C` [Compound 3], for which the inhibition at 10 µM at PDK1 Direct was determined as 89%; on CAMK4 (CaMKIV) it was 8%; at PTK2 (FAK), 94%; on LYN A, 88%; against NEK6, 12%; at AURKB (Aurora B), 88%. Besides, the inhibition at 10 µM at CSF1R (FMS) turned out to be 94%; on AKT3 (PKB gamma), 43%; at CSNK1A1 (CK1 alpha 1), 28%; against IRAK4, 71%; at ACVR1B (ALK4), 52%; at RPS6KA4 (MSK2), 89%. Further, the inhibition at 10 µM on PRKCD (PKC delta) is 97%; at STK22B (TSSK2), -7%.
